Columns and labels:
Test in all cases: relative viability (nuclei count vs DMSO), 5 days (fraction); higher = more cells survive
VX-11e + Luminespib = compound: CC1=CN=C(N=C1C2=CNC(=C2)C(=O)N[C@H](CO)C3=CC(=CC=C3)Cl)NC4=C(C=C(C=C4)F)Cl [VX-11e] + CCNC(=O)c1noc(-c2cc(C(C)C)c(O)cc2O)c1-c1ccc(CN2CCOCC2)cc1 [Luminespib] (partner 0.01 µM)
In short: (§1)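 Relative viability is defined as nuclei in treated wells over nuclei in vehicle wells. Duplicate plates were run and medians reported. Lung cancer cell lines in 1536-well plates were dosed by pin tool one day after seeding, with one drug or with a fixed anchor-drug dose plus five library-drug doses (not always all listed) in √10 steps, and nuclei were counted after 5 days.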

VX-11e + Foretinib = compound: CC1=CN=C(N=C1C2=CNC(=C2)C(=O)N[C@H](CO)C3=CC(=CC=C3)Cl)NC4=C(C=C(C=C4)F)Cl [VX-11e] + COc1cc2c(Oc3ccc(NC(=O)C4(C(=O)Nc5ccc(F)cc5)CC4)cc3F)ccnc2cc1OCCCN1CCOCC1 [Foretinib] (partner 0.25 µM)
In short: as §1

VX-11e + Navitoclax = compound: CC1=CN=C(N=C1C2=CNC(=C2)C(=O)N[C@H](CO)C3=CC(=CC=C3)Cl)NC4=C(C=C(C=C4)F)Cl [VX-11e] + CC1(C)CCC(c2ccc(Cl)cc2)=C(CN2CCN(c3ccc(C(=O)NS(=O)(=O)c4ccc(N[C@H](CCN5CCOCC5)CSc5ccccc5)c(S(=O)(=O)C(F)(F)F)c4)cc3)CC2)C1 [Navitoclax] (partner 0.5 µM)
In short: as §1

VX-11e + Linsitinib = compound: CC1=CN=C(N=C1C2=CNC(=C2)C(=O)N[C@H](CO)C3=CC(=CC=C3)Cl)NC4=C(C=C(C=C4)F)Cl [VX-11e] + C[C@]1(O)C[C@@H](c2nc(-c3ccc4ccc(-c5ccccc5)nc4c3)c3c(N)nccn32)C1 [Linsitinib] (partner 1 µM)
In short: as §1

## LOU-NH91
VX-11e + Luminespib; first compound 0.04 µM
  relative viability: 0.394
VX-11e + Luminespib; first compound 0.1265 µM
  relative viability: 0.396
VX-11e + Luminespib; first compound 0.4 µM
  relative viability: 0.283
VX-11e + Luminespib; first compound 1.265 µM
  relative viability: 0.341
VX-11e + Luminespib; first compound 4 µM
  relative viability: 0.312
VX-11e + Foretinib; first compound 0.04 µM
  relative viability: 0.92
VX-11e + Foretinib; first compound 0.1265 µM
  relative viability: 0.896
VX-11e + Foretinib; first compound 0.4 µM
  relative viability: 0.577
VX-11e + Foretinib; first compound 1.265 µM
  relative viability: 0.94
VX-11e + Foretinib; first compound 4 µM
  relative viability: 0.782
VX-11e + Navitoclax; first compound 0.04 µM
  relative viability: 0.751
VX-11e + Navitoclax; first compound 0.1265 µM
  relative viability: 0.692
VX-11e + Navitoclax; first compound 1.265 µM
  relative viability: 0.593
VX-11e + Navitoclax; first compound 4 µM
  relative viability: 0.581
VX-11e + Linsitinib; first compound 0.04 µM
  relative viability: 0.919
VX-11e + Linsitinib; first compound 0.1265 µM
  relative viability: 0.952
VX-11e + Linsitinib; first compound 1.265 µM
  relative viability: 0.946
VX-11e + Linsitinib; first compound 4 µM
  relative viability: 0.733

## LU99A
VX-11e + Luminespib; first compound 0.04 µM
  relative viability: 0.3
VX-11e + Luminespib; first compound 0.1265 µM
  relative viability: 0.249
VX-11e + Luminespib; first compound 0.4 µM
  relative viability: 0.209
VX-11e + Luminespib; first compound 1.265 µM
  relative viability: 0.336
VX-11e + Luminespib; first compound 4 µM
  relative viability: 0.172
VX-11e + Foretinib; first compound 0.04 µM
  relative viability: 0.806
VX-11e + Foretinib; first compound 0.1265 µM
  relative viability: 0.729
VX-11e + Foretinib; first compound 0.4 µM
  relative viability: 0.894
VX-11e + Foretinib; first compound 1.265 µM
  relative viability: 0.805
VX-11e + Foretinib; first compound 4 µM
  relative viability: 0.362
VX-11e + Navitoclax; first compound 0.04 µM
  relative viability: 0.82
VX-11e + Navitoclax; first compound 0.1265 µM
  relative viability: 0.925
VX-11e + Navitoclax; first compound 0.4 µM
  relative viability: 0.651
VX-11e + Navitoclax; first compound 1.265 µM
  relative viability: 0.335
VX-11e + Navitoclax; first compound 4 µM
  relative viability: 0.161
VX-11e + Linsitinib; first compound 0.04 µM
  relative viability: 0.539
VX-11e + Linsitinib; first compound 0.1265 µM
  relative viability: 0.456
VX-11e + Linsitinib; first compound 0.4 µM
  relative viability: 0.623
VX-11e + Linsitinib; first compound 1.265 µM
  relative viability: 0.42
VX-11e + Linsitinib; first compound 4 µM
  relative viability: 0.207

## LXF-289
VX-11e + Luminespib; first compound 0.04 µM
  relative viability: 0.641
VX-11e + Luminespib; first compound 0.1265 µM
  relative viability: 0.592
VX-11e + Luminespib; first compound 0.4 µM
  relative viability: 0.659
VX-11e + Luminespib; first compound 1.265 µM
  relative viability: 0.656
VX-11e + Luminespib; first compound 4 µM
  relative viability: 0.407
VX-11e + Foretinib; first compound 0.04 µM
  relative viability: 1
VX-11e + Foretinib; first compound 0.1265 µM
  relative viability: 0.877
VX-11e + Foretinib; first compound 0.4 µM
  relative viability: 0.88
VX-11e + Foretinib; first compound 1.265 µM
  relative viability: 0.85
VX-11e + Foretinib; first compound 4 µM
  relative viability: 0.637
VX-11e + Navitoclax; first compound 0.04 µM
  relative viability: 0.99
VX-11e + Navitoclax; first compound 0.1265 µM
  relative viability: 0.914
VX-11e + Navitoclax; first compound 0.4 µM
  relative viability: 0.965
VX-11e + Navitoclax; first compound 1.265 µM
  relative viability: 0.895
VX-11e + Navitoclax; first compound 4 µM
  relative viability: 0.607
VX-11e + Linsitinib; first compound 0.04 µM
  relative viability: 0.995
VX-11e + Linsitinib; first compound 0.1265 µM
  relative viability: 0.88
VX-11e + Linsitinib; first compound 0.4 µM
  relative viability: 0.958
VX-11e + Linsitinib; first compound 1.265 µM
  relative viability: 0.801
VX-11e + Linsitinib; first compound 4 µM
  relative viability: 0.686

## NCI-H23
VX-11e + Luminespib; first compound 0.04 µM
  relative viability: 0.237
VX-11e + Luminespib; first compound 0.1265 µM
  relative viability: 0.225
VX-11e + Luminespib; first compound 0.4 µM
  relative viability: 0.237
VX-11e + Luminespib; first compound 1.265 µM
  relative viability: 0.182
VX-11e + Luminespib; first compound 4 µM
  relative viability: 0.185
VX-11e + Foretinib; first compound 0.04 µM
  relative viability: 0.896
VX-11e + Foretinib; first compound 0.1265 µM
  relative viability: 0.984
VX-11e + Foretinib; first compound 1.265 µM
  relative viability: 0.767
VX-11e + Foretinib; first compound 4 µM
  relative viability: 0.472
VX-11e + Navitoclax; first compound 0.04 µM
  relative viability: 1
VX-11e + Navitoclax; first compound 0.1265 µM
  relative viability: 0.859
VX-11e + Navitoclax; first compound 0.4 µM
  relative viability: 0.467
VX-11e + Navitoclax; first compound 1.265 µM
  relative viability: 0.459
VX-11e + Navitoclax; first compound 4 µM
  relative viability: 0.243
VX-11e + Linsitinib; first compound 0.04 µM
  relative viability: 0.48
VX-11e + Linsitinib; first compound 0.1265 µM
  relative viability: 0.52
VX-11e + Linsitinib; first compound 0.4 µM
  relative viability: 0.37
VX-11e + Linsitinib; first compound 1.265 µM
  relative viability: 0.378
VX-11e + Linsitinib; first compound 4 µM
  relative viability: 0.271

## NCI-H322M
VX-11e + Luminespib; first compound 0.04 µM
  relative viability: 0.846
VX-11e + Luminespib; first compound 0.1265 µM
  relative viability: 0.687
VX-11e + Luminespib; first compound 0.4 µM
  relative viability: 0.303
VX-11e + Luminespib; first compound 1.265 µM
  relative viability: 0.658
VX-11e + Luminespib; first compound 4 µM
  relative viability: 0.606
VX-11e + Foretinib; first compound 0.04 µM
  relative viability: 0.924
VX-11e + Foretinib; first compound 0.1265 µM
  relative viability: 0.748
VX-11e + Foretinib; first compound 0.4 µM
  relative viability: 0.981
VX-11e + Foretinib; first compound 1.265 µM
  relative viability: 0.763
VX-11e + Foretinib; first compound 4 µM
  relative viability: 0.659
VX-11e + Navitoclax; first compound 0.04 µM
  relative viability: 1.24
VX-11e + Navitoclax; first compound 0.4 µM
  relative viability: 1.23
VX-11e + Navitoclax; first compound 1.265 µM
  relative viability: 1.06
VX-11e + Navitoclax; first compound 4 µM
  relative viability: 0.672
VX-11e + Linsitinib; first compound 0.04 µM
  relative viability: 1.01
VX-11e + Linsitinib; first compound 0.4 µM
  relative viability: 0.781
VX-11e + Linsitinib; first compound 1.265 µM
  relative viability: 0.688
VX-11e + Linsitinib; first compound 4 µM
  relative viability: 0.534

## NCI-H441
VX-11e + Luminespib; first compound 0.04 µM
  relative viability: 0.345
VX-11e + Luminespib; first compound 0.1265 µM
  relative viability: 0.31
VX-11e + Luminespib; first compound 1.265 µM
  relative viability: 0.459
VX-11e + Luminespib; first compound 4 µM
  relative viability: 0.323
VX-11e + Foretinib; first compound 0.04 µM
  relative viability: 1.14
VX-11e + Foretinib; first compound 0.1265 µM
  relative viability: 1.2
VX-11e + Foretinib; first compound 1.265 µM
  relative viability: 1.05
VX-11e + Foretinib; first compound 4 µM
  relative viability: 0.937
VX-11e + Navitoclax; first compound 0.04 µM
  relative viability: 0.668
VX-11e + Navitoclax; first compound 0.1265 µM
  relative viability: 0.469
VX-11e + Navitoclax; first compound 1.265 µM
  relative viability: 0.905
VX-11e + Navitoclax; first compound 4 µM
  relative viability: 0.556
VX-11e + Linsitinib; first compound 0.04 µM
  relative viability: 0.542
VX-11e + Linsitinib; first compound 0.1265 µM
  relative viability: 0.584
VX-11e + Linsitinib; first compound 1.265 µM
  relative viability: 0.657
VX-11e + Linsitinib; first compound 4 µM
  relative viability: 0.419

## NCI-H460
VX-11e + Luminespib; first compound 0.04 µM
  relative viability: 0.0317
VX-11e + Luminespib; first compound 0.1265 µM
  relative viability: 0.0379
VX-11e + Luminespib; first compound 0.4 µM
  relative viability: 0.0305
VX-11e + Luminespib; first compound 1.265 µM
  relative viability: 0.0413
VX-11e + Luminespib; first compound 4 µM
  relative viability: 0.0238
VX-11e + Foretinib; first compound 0.04 µM
  relative viability: 0.872
VX-11e + Foretinib; first compound 0.1265 µM
  relative viability: 0.984
VX-11e + Foretinib; first compound 0.4 µM
  relative viability: 0.896
VX-11e + Foretinib; first compound 1.265 µM
  relative viability: 0.872
VX-11e + Foretinib; first compound 4 µM
  relative viability: 0.189
VX-11e + Navitoclax; first compound 0.04 µM
  relative viability: 1.37
VX-11e + Navitoclax; first compound 0.1265 µM
  relative viability: 1.16
VX-11e + Navitoclax; first compound 0.4 µM
  relative viability: 1.13
VX-11e + Navitoclax; first compound 1.265 µM
  relative viability: 0.542
VX-11e + Navitoclax; first compound 4 µM
  relative viability: 0.0727
VX-11e + Linsitinib; first compound 0.04 µM
  relative viability: 1.17
VX-11e + Linsitinib; first compound 0.1265 µM
  relative viability: 0.849
VX-11e + Linsitinib; first compound 0.4 µM
  relative viability: 0.674
VX-11e + Linsitinib; first compound 1.265 µM
  relative viability: 0.0925
VX-11e + Linsitinib; first compound 4 µM
  relative viability: 0.017

## NCI-H520
VX-11e + Luminespib; first compound 0.04 µM
  relative viability: 0.205
VX-11e + Luminespib; first compound 0.1265 µM
  relative viability: 0.183
VX-11e + Luminespib; first compound 0.4 µM
  relative viability: 0.19
VX-11e + Luminespib; first compound 1.265 µM
  relative viability: 0.272
VX-11e + Luminespib; first compound 4 µM
  relative viability: 0.207
VX-11e + Foretinib; first compound 0.04 µM
  relative viability: 0.746
VX-11e + Foretinib; first compound 0.1265 µM
  relative viability: 0.715
VX-11e + Foretinib; first compound 0.4 µM
  relative viability: 0.69
VX-11e + Foretinib; first compound 1.265 µM
  relative viability: 0.919
VX-11e + Foretinib; first compound 4 µM
  relative viability: 0.569
VX-11e + Navitoclax; first compound 0.04 µM
  relative viability: 0.963
VX-11e + Navitoclax; first compound 0.1265 µM
  relative viability: 1.04
VX-11e + Navitoclax; first compound 0.4 µM
  relative viability: 1
VX-11e + Navitoclax; first compound 1.265 µM
  relative viability: 1.38
VX-11e + Navitoclax; first compound 4 µM
  relative viability: 0.992
VX-11e + Linsitinib; first compound 0.04 µM
  relative viability: 0.948
VX-11e + Linsitinib; first compound 0.1265 µM
  relative viability: 0.898
VX-11e + Linsitinib; first compound 0.4 µM
  relative viability: 0.827
VX-11e + Linsitinib; first compound 1.265 µM
  relative viability: 1.06
VX-11e + Linsitinib; first compound 4 µM
  relative viability: 0.69
